Key:
[1] = parameters: method as in PMID 23553846; settings: xenograft mice; cited from earlier work
[2] = Oral PK of tepotinib and total radioactivity in plasma and blood (part A); assay type: in vivo, human healthy male volunteers; settings: min–max, n=6
Protocol: (§1) Participants were hospitalized from day 1 to day 16 of the study, and further assessed on days 19, 22, and 25 (trial end). […] Pre-dose feces and urine samples were collected on day 1 and day 2, respectively. Urine was collected at 4- to 12-h intervals on day 1 and every 24 h thereafter up to day 16. Feces were collected every 24 h up to day 16. Provision was made to collect further samples up to day 39 if >1% of the administered dose was detectable in the total (urine and feces) excreta per day on two consecutive measurements.
In brief, the isotopically labeled internal standard [^2H]-MSC2156119A was added to 20 μL K2-ethylenediaminetetraacetic acid (EDTA) plasma. […] Samples were centrifuged and 10 μL aliquots of the supernatant were injected onto an Acquity Charged Surface Hybrid™ (CSH) C18 column (2.1 × 50 mm; […]; Waters, Milford, Massachusetts, USA). Separation was carried out using a mobile phase gradient (eluent A: water/formic acid [100 + 1, v/v]; eluent B: acetonitrile/formic acid [100 + 1, v/v]) with a flow rate of 0.6 mL/min. […] The lower limit of quantification (LLOQ) was 5.00 ng/mL, and the calibration standard responses were linear over the range between 5.00 and 2500 ng/mL using a weighted (1/x^2) linear regression.
Total radioactivity in blood, plasma, urine, and feces samples, and quick counts in urine and feces samples were determined at the bioanalytical laboratory of PRA (Assen, The Netherlands) using liquid scintillation counting (LSC). Scintillation cocktail Ultima Gold™ (5 mL; Perkin Elmar, Waltham, Massachusetts, USA) was directly spiked into 250 μL plasma and 1000 μL urine samples, respectively, whereas 300 μL aliquots of blood samples were solubilized and decolorized before adding 18 mL of the scintillation cocktail prior to LSC. Feces samples were (quantitatively) homogenized with one or two weight equivalents of water, and an accurately weighted aliquot of approximately 500 mg of the homogenate was dried at 50 °C for at least 3 h. […]
The maximum plasma concentration (Cmax) and time to reach maximum concentration (tmax) were derived directly from the plasma concentration–time data. […] The area under the plasma concentration–time curve from 0 to t (last measurable concentration; AUC0–t) was calculated using a mixed log–linear trapezoidal method. […] Amounts excreted in urine, feces, and total (urine + feces) were calculated as the sum of amounts (concentration multiplied by volume) for each collection from time 0 to time t. […] Total body clearance (CL) and apparent body clearance (CL/f) were determined by dose/AUC0–∞, and total volume of distribution (Vz) and apparent volume of distribution (Vz/f) were calculated by dose/(AUC0–∞*λz) after IV and oral administration, respectively. […]

[3] = parameters: method as in printed; settings: preclinical results, bile-canaliculated rats, [14C]-tepotinib; ref not given; cited from earlier work
[4] = Metabolite profiling and identification in plasma, urine and feces (part A); assay type: in vivo, human healthy male volunteers; settings: oral part A
Protocol: as §1
Metabolite profiling and structure elucidation in plasma, urine, and feces were performed at the Institute of Drug Metabolism and Pharmacokinetics, Merck KGaA, Grafing, Germany, using a radiometric UPLC method coupled to a high-resolution MS. For urine and feces, metabolites were identified in a single pooled sample per matrix and subject (urine pool of 4–120 h and feces pool of 0–192 h), that covered at least 90% of the total radioactivity of the respective matrix excreted. Intervals with low radioactivity were not used for the generation of the pooled samples to avoid dilution, and to increase the signal-to-noise ratio of the respective chromatograms.
The metabolite structure elucidation was performed using the linear trap quadrupole Orbitrap XL hybrid Fourier transform (FT) MS (Thermo Scientific, Dreieich, Germany) coupled to a Waters Acquity UPLC system. Full-scan FT spectra were acquired for measurement of the masses of molecular ions of parent and metabolites. MS^2 fragmentation spectra were acquired after high-energy collisional dissociation of the appropriate molecular ions. Allocation and confirmation of the proposed metabolites to the radioactive peaks were performed using an API4000 QTrap (AB Sciex, Darmstadt, Germany) MS with simultaneous splitting using a fraction collection system (CTC HTS PAL Fraction Collector, Axel Semrau, Sprockhövel, Germany), and offline radioactive measurement using a Topcount NXT® microplate scintillation counter (PerkinElmer, Rodgau, Germany).
The maximum plasma concentration (Cmax) and time to reach maximum concentration (tmax) were derived directly from the plasma concentration–time data. Lag time (tlag) was the time prior to the first measurable (non-zero) concentration. The area under the plasma concentration–time curve from 0 to t (last measurable concentration; AUC0–t) was calculated using a mixed log–linear trapezoidal method. Area under the plasma concentration–time curve until the last sampling time (AUCall), which corresponds to AUC0–240 h within the observation period, was used for metabolite calculations. Amounts excreted in urine, feces, and total (urine + feces) were calculated as the sum of amounts (concentration multiplied by volume) for each collection from time 0 to time t. The terminal rate constant (λz) was used to estimate the terminal half-life (t½) (ln 2/λz), and the area under the concentration–time curve from time 0 to infinity (AUC0–∞). Total body clearance (CL) and apparent body clearance (CL/f) were determined by dose/AUC0–∞, and total volume of distribution (Vz) and apparent volume of distribution (Vz/f) were calculated by dose/(AUC0–∞*λz) after IV and oral administration, respectively. Volume of distribution of the central compartment (Vc) was derived by dividing the dose by the initial drug plasma concentration after IV administration. Absolute bioavailability was calculated as F = (AUCoral/doseoral)/(AUCIV/doseIV) × 100. The ratios (%) AUCtepotinib or metabolite/AUCtotal radioactivity were calculated as a percentage of the molar AUCs.

[5] = tepotinib in plasma, median, single oral 498 mg capsules

CN1CCC(COc2cnc(-c3cccc(Cn4nc(-c5cccc(C#N)c5)ccc4=O)c3)nc2)CC1 [Tepotinib]
tumor versus plasma concentration [1]: higher concentrations in xenograft tumors than in the plasma of mice
t½ ([2]; tepotinib in plasma, geometric mean (geometric CV%), single oral 498 mg capsules): 33 h
tlag [2, 5]: 2 h
tmax [2, 5]: 9 h
tlag ([2]; total radioactivity in plasma, median, oral part A): 2.5 h
biliary excretion of radioactivity [3]: a predominant fraction of radioactivity is excreted unchanged via the bile
% of total radioactive administered dose excreted in feces or urine (excreta) ([4]; feces plus urine): 52%
% of total administered radioactive dose excreted in feces ([4]; feces pool 0–192 h): 45%
% of AUCall of total 14C-radioactivity in plasma ([4]; plasma, AUCall = AUC0–240 h, molar AUC ratio): 55%
% of total administered radioactive dose excreted in urine ([4]; urine pool 4–120 h): 7%

Reference: paper PMC7497692 (Investigational New Drugs, 2020)
